Data taken from patent publication US10329295B2, “Pyrrolotriazine inhibitors of IRAK4 activity” (MERCK SHARP & DOHME CORP., priority 2015, dated 2019).
pIC50: −log10 of the molar value. Structures can show the parent of a compound that is named as a salt.

target: GST tagged IRAK4 (Homo sapiens (Human), UniProt Q9NWZ3); test: IRAK4 Kinase Assay (IMAP fluorescence polarization); type: biochemical; settings: 0.5 nM GST tagged IRAK4, 100 μM ATP, 30 minutes at 25° C.
Method in brief: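 Reactions contained 0.5 nM GST-IRAK4, 100 nM fluorescent peptide substrate and 100 μM ATP in 10 mM Tris-HCl pH 7.2 with 1 mM MgCl2, and were started with ATP. After 30 minutes at 25° C they were stopped with IMAP reagent. Substrate phosphorylation was read as the change in fluorescence polarization.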

GST tagged IRAK4, sequence (Q9NWZ3 whole entry): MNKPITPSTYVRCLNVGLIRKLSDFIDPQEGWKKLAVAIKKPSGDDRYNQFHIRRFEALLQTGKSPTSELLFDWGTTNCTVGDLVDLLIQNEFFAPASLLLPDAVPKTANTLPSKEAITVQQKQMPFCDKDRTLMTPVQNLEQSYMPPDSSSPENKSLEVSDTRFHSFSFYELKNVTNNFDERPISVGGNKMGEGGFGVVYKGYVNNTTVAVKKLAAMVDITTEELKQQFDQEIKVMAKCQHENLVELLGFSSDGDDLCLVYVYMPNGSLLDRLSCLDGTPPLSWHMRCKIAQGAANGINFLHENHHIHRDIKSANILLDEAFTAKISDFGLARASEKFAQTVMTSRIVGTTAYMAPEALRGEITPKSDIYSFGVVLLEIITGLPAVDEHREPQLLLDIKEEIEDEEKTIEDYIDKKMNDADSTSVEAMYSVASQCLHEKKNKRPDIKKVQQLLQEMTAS

pIC50 | SMILES
5.72 | N#Cc1ccccc1NC(=O)c1ccc2cnc(N3CCNCC3)nn12 [Example 58, N-(2-cyanophenyl)-2-piperazin-1-ylpyrrolo[2,1-f][1,2,4]triazine-7-carboxamide trifluoroacetate]
5.37 | N#Cc1ccccc1NC(=O)c1ccc2cnc(N3CCCNCC3)nn12 [Example 59, N-(2-cyanophenyl)-2-(1,4-diazepan-1-yl)pyrrolo[2,1-f][1,2,4]triazine-7-carboxamide trifluoroacetate]
9.00 | Cn1cc(NC(=O)c2ccc3cnc(N[C@@H]4CCCC[C@@H]4N)nn23)c(Br)n1 [Example 66, 2-{[(1R,2S)-2-aminocyclohexyl]amino}-N-(3-bromo-1-methyl-1H-pyrazol-4-yl)pyrrolo[2,1-f][1,2,4]triazine-7-carboxamide trifluoroacetate]
7.41 | Cn1cc(NC(=O)c2ccc3cnc(N4CCCNCC4)nn23)c(Br)n1 [Example 67, N-(3-bromo-1-methyl-1H-pyrazol-4-yl)-2-(1,4-diazepan-1-yl)pyrrolo[2,1-f][1,2,4]triazine-7-carboxamide trifluoroacetate]
7.59 | Cn1ncc(NC(=O)c2ccc3cnc(N[C@@H]4CCCC[C@@H]4N)nn23)c1C(F)(F)F [Example 70, 2-{[(1R,2S)-2-aminocyclohexyl]amino}-N-[1-methyl-5-(trifluoromethyl)-1H-pyrazol-4-yl]pyrrolo[2,1-f][1,2,4]triazine-7-carboxamide trifluoroacetate]
6.18 | N#Cc1ccccc1NC(=O)c1ccc2cnc(N[C@@H]3CCCC[C@@H]3O)nn12 [Example 71, N-(2-cyanophenyl)-2-{[(1R,2S)-2-hydroxycyclohexyl]amino}-pyrrolo[2,1-f][1,2,4]triazine-7-carboxamide]
6.01 | N#Cc1ccccc1NC(=O)c1ccc2cnc(N3CCNCC4(CC4)C3)nn12 [Example 76, N-(2-cyanophenyl)-2-(5,8-diazaspiro[2.6]non-5-yl)pyrrolo[2,1-f][1,2,4]triazine-7-carboxamide trifluoroacetate]
6.64 | Cn1cc(NC(=O)c2ccc3cnc(N[C@@H]4CCCC(F)(F)[C@@H]4N)nn23)c(Cl)n1 [Example 79, 2-{[(1R,2R)-2-amino-3,3-difluorocyclohexyl]amino}-N-(3-chloro-1-methyl-1H-pyrazol-4-yl)pyrrolo[2,1-f][1,2,4]triazine-7-carboxamide trifluoroacetate]
5.58 | O=C(Nc1ccsc1C(F)(F)F)c1ccc2cnc(N3CCCNCC3)nn12 [Example 85, 2-(1,4-diazepan-1-yl)-N-[2-(trifluoromethyl)thiophen-3-yl]pyrrolo[2,1-f][1,2,4]triazine-7-carboxamide trifluoroacetate]
7.24 | N[C@H]1CCCC[C@H]1Nc1ncc2ccc(C(=O)Nc3ccsc3C(F)(F)F)n2n1 [Example 88, 2-{[(1R,2S)-2-aminocyclohexyl]amino}-N-[2-(trifluoromethyl)thiophen-3-yl]pyrrolo[2,1-f][1,2,4]triazine-7-carboxamide trifluoroacetate]
6.43 | Cn1cc(NC(=O)c2ccc3cnc(N[C@@H]4CCCC(F)(F)[C@@H]4N)nn23)c(Br)n1 [Example 89, 2-{[(1R,2R)-2-amino-3,3-difluorocyclohexyl]amino}-N-(3-bromo-1-methyl-1H-pyrazol-4-yl)pyrrolo[2,1-f][1,2,4]triazine-7-carboxamide trifluoroacetate]
7.34 | Cn1cc(NC(=O)c2ccc3cnc(N[C@@H]4CCCC(F)(F)[C@@H]4N)nn23)c(C(F)F)n1 [Example 92, 2-{[(1R,2R)-2-amino-3,3-difluorocyclohexyl]amino}-N-[3-(difluoromethyl)-1-methyl-1H-pyrazol-4-yl]pyrrolo[2,1-f][1,2,4]triazine-7-carboxamide trifluoroacetate]
6.53 | N[C@@H]1[C@H](Nc2ncc3ccc(C(=O)Nc4cscc4C(F)F)n3n2)CCCC1(F)F [Example 93, 2-{[(1R,2R)-2-amino-3,3-difluorocyclohexyl]amino}-N-[4-(difluoromethyl)thiophen-3-yl]pyrrolo[2,1-f][1,2,4]triazine-7-carboxamide trifluoroacetate]
5.38 | N[C@@H]1[C@H](Nc2ncc3ccc(C(=O)Nc4ccsc4Br)n3n2)CCCC1(F)F [Example 94, 2-{[(1R,2R)-2-amino-3,3-difluorocyclohexyl]amino}-N-(2-bromothiophen-3-yl)pyrrolo[2,1-f][1,2,4]triazine-7-carboxamide trifluoroacetate]
5.33 | N[C@@H]1[C@H](Nc2ncc3ccc(C(=O)Nc4ccsc4C(F)(F)F)n3n2)CCCC1(F)F [Example 95, 2-{[(1R,2R)-2-amino-3,3-difluorocyclohexyl]amino}-N-[2-(trifluoromethyl)thiophen-3-yl]pyrrolo[2,1-f][1,2,4]triazine-7-carboxamide trifluoroacetate]
5.72 | N[C@@H]1[C@H](Nc2ncc3ccc(C(=O)Nc4ccsc4Cl)n3n2)CCCC1(F)F [Example 97, 2-{[(1R,2R)-2-amino-3,3-difluorocyclohexyl]amino}-N-(2-chlorothiophen-3-yl)pyrrolo[2,1-f][1,2,4]triazine-7-carboxamide trifluoroacetate]
7.07 | Cn1cc(NC(=O)c2ccc3cnc(N[C@@H]4CCCC(F)(F)[C@@H]4N)nn23)c(C#N)n1 [Example 98, 2-{[(1R,2R)-2-amino-3,3-difluorocyclohexyl]amino}-N-(3-cyano-1-methyl-1H-pyrazol-4-yl)pyrrolo[2,1-f][1,2,4]triazine-7-carboxamide trifluoroacetate]
5.32 | O=C(Nc1cscc1Cl)c1ccc2cnc(N3CCCNCC3)nn12 [Example 105, N-(4-chlorothiophen-3-yl)-2-(1,4-diazepan-1-yl)pyrrolo[2,1-f][1,2,4]triazine-7-carboxamide trifluoroacetate]
5.24 | N[C@@H]1[C@H](Nc2ncc3ccc(C(=O)Nc4ccccc4Br)n3n2)CCCC1(F)F [Example 106, 2-{[(1R,2R)-2-amino-3,3-difluorocyclohexyl]amino}-N-(2-bromophenyl)pyrrolo[2,1-f][1,2,4]triazine-7-carboxamide trifluoroacetate]
8.70 | N[C@H]1CCCC[C@H]1Nc1ncc2ccc(C(=O)Nc3cscc3Cl)n2n1 [Example 109, 2-{[(1R,2S)-2-aminocyclohexyl]amino}-N-(4-chlorothiophen-3-yl)pyrrolo[2,1-f][1,2,4]triazine-7-carboxamide trifluoroacetate]
7.70 | Cn1cc(NC(=O)c2ccc3cnc(N[C@@H]4CCCC[C@@H]4O)nn23)c(C#N)n1 [Example 122, N-(3-cyano-1-methyl-1H-pyrazol-4-yl)-2-{[(1R,2S)-2-hydroxycyclohexyl]amino}-pyrrolo[2,1-f][1,2,4]triazine-7-carboxamide trifluoroacetate]
9.00 | Cn1cc(NC(=O)c2ccc3cnc(N4CCC[C@H](N)C4)nn23)c(C#N)n1 [Example 123, 2-[(3S)-3-aminopiperidin-1-yl]-N-(3-cyano-1-methyl-1H-pyrazol-4-yl)pyrrolo[2,1-f][1,2,4]triazine-7-carboxamide trifluoroacetate]
9.10 | Cn1cc(NC(=O)c2ccc3cnc(N[C@@H]4CCCNC4)nn23)c(C#N)n1 [Example 124, N-(3-cyano-1-methyl-1H-pyrazol-4-yl)-2-[(3R)-piperidin-3-ylamino]pyrrolo[2,1-f][1,2,4]triazine-7-carboxamide trifluoroacetate]
9.00 | Cn1cc(NC(=O)c2ccc3cnc(N4CCC[C@@H](N)C4)nn23)c(C#N)n1 [Example 125, 2-[(3R)-3-aminopiperidin-1-yl]-N-(3-cyano-1-methyl-1H-pyrazol-4-yl)pyrrolo[2,1-f][1,2,4]triazine-7-carboxamide trifluoroacetate]
5.90 | N[C@@H]1[C@H](Nc2ncc3ccc(C(=O)Nc4cscc4Cl)n3n2)CCCC1(F)F [Example 126, 2-{[(1R,2R)-2-amino-3,3-difluorocyclohexyl]amino}-N-(4-chlorothiophen-3-yl)pyrrolo[2,1-f][1,2,4]triazine-7-carboxamide trifluoroacetate]

SMILES | pIC50
Cn1cc(NC(=O)c2ccc3cnc(N4CC5CCC(C4)N5)nn23)c(C(F)(F)F)n1 [Example 82, 2-(3,8-diazabicyclo[3.2.1]oct-3-yl)-N-[1-methyl-3-(trifluoromethyl)-1H-pyrazol-4-yl]pyrrolo[2,1-f][1,2,4]triazine-7-carboxamide trifluoroacetate] | 7.49
Cn1cc(NC(=O)c2ccc3cnc(N4CC5CCC(C4)N5)nn23)c(C(F)F)n1 [Example 83, 2-(3,8-diazabicyclo[3.2.1]oct-3-yl)-N-[3-[difluoromethyl)-1-methyl-1H-pyrazol-4-yl]pyrrolo[2,1-f][1,2,4]triazine-7-carboxamide trifluoroacetate] | 8.70
Cn1cc(NC(=O)c2ccc3cnc(N4C5CCC4CNC5)nn23)c(C(F)(F)F)n1 [Example 96, 2-(3,8-diazabicyclo[3.2.1]oct-8-yl)-N-[1-methyl-3-(trifluoromethyl)-1H-pyrazol-4-yl]pyrrolo[2,1-f][1,2,4]triazine-7-carboxamide trifluoroacetate] | 8.30
Cn1cc(NC(=O)c2ccc3cnc(N4CC5CCC(C4)N5)nn23)c(C#N)n1 [Example 110, N-(3-cyano-1-methyl-1H-pyrazol-4-yl)-2-(3,8-diazabicyclo[3.2.1]oct-3-yl)pyrrolo[2,1-f][1,2,4]triazine-7-carboxamide trifluoroacetate] | 6.93
Cn1cc(NC(=O)c2ccc3cnc(N4C5CCC4CNC5)nn23)c(C#N)n1 [Example 111, N-(3-cyano-1-methyl-1H-pyrazol-4-yl)-2-(3,8-diazabicyclo[3.2.1]oct-8-yl)pyrrolo[2,1-f][1,2,4]triazine-7-carboxamide trifluoroacetate] | 7.92
Cn1cc(NC(=O)c2ccc3cnc(N4C5CCC4CNC5)nn23)c(C(F)F)n1 [Example 121, 2-(3,8-diazabicyclo[3.2.1]oct-8-yl)-N-[3-(difluoromethyl)-1-methyl-1H-pyrazol-4-yl]pyrrolo[2,1-f][1,2,4]triazine-7-carboxamide trifluoroacetate] | 9.30
